Experimental data reported in ChEMBL document CHEMBL1129812, “Oestrone 3-O-(N-acetyl)sulphamate, a potential molecular probe of the active site of oestrone sulphatase” (Bioorg Med Chem Lett, 1997).
Values belong to the molecule of their own block, whether it stands above or below them. Active and inactive are the calls of the source. The rule behind the calls is not given here.

Tests used:
[1] = molecular target: T1, Steryl-sulfatase (Homo sapiens) (UniProt P08842); assay: Compound was tested for percent inhibitory activity against Estrone sulfatase 1 (E1-STS) at 0.10 uM in placental microsomes; conditions: Placenta
T1 sequence (whole entry): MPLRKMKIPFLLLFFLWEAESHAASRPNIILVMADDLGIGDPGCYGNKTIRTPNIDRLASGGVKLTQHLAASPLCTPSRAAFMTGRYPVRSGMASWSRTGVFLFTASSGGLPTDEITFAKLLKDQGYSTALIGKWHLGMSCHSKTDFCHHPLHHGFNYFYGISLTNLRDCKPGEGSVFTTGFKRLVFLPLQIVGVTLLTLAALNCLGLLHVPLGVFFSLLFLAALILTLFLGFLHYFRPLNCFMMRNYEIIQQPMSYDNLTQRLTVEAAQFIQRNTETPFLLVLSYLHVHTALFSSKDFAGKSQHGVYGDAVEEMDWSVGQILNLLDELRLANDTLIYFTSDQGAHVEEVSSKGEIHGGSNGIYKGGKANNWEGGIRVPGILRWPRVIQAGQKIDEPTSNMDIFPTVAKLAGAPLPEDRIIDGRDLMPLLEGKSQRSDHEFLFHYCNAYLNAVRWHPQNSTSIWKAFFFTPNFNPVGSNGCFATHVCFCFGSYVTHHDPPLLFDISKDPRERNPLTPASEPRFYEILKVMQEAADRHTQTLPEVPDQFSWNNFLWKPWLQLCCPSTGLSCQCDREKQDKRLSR

[2] = molecular target: T1, Steryl-sulfatase (Homo sapiens); assay: Compound was tested for percent inhibitory activity against Estrone sulfatase 1 (E1-STS) at 0.20 uM in placental microsomes; conditions: Placenta
[3] = molecular target: T1, Steryl-sulfatase (Homo sapiens); assay: Compound was tested for percent inhibitory activity against Estrone sulfatase 1 (E1-STS) at 25 uM in placental microsomes; conditions: Placenta
[4] = molecular target: T1, Steryl-sulfatase (Homo sapiens); assay: Compound was tested for percent inhibitory activity against Estrone sulfatase 1 (E1-STS) at 10 uM in placental microsomes; conditions: Placenta
[5] = molecular target: T1, Steryl-sulfatase (Homo sapiens); assay: In vitro percentage inhibition of Estrone sulfatase 1 (EI-STS) activity at concentration of 0.1 micro M in intact MCF-7 breast cancer cells; type: cell-based; conditions: MCF7
[6] = molecular target: T1, Steryl-sulfatase (Homo sapiens); assay: Compound was tested for percent inhibitory activity against Estrone sulfatase 1 (E1-STS) at 20 uM in placental microsomes; conditions: Placenta
[7] = molecular target: T1, Steryl-sulfatase (Homo sapiens); assay: Compound was tested for percent inhibitory activity against Estrone sulfatase 1 (E1-STS) at 100 uM in placental microsomes; conditions: Placenta
[8] = molecular target: T1, Steryl-sulfatase (Homo sapiens); assay: Compound was tested for percent inhibitory activity against Estrone sulfatase 1 (E1-STS) at 50 uM in placental microsomes; conditions: Placenta
[9] = molecular target: T1, Steryl-sulfatase (Homo sapiens); conditions: Placenta; Microsomes; 0.1 uM
Description: Compound was tested for percent inhibitory activity against Estrone sulfatase 1 (E1-STS) at 0.1 uM in placental microsomes

[10] = molecular target: T1, Steryl-sulfatase (Homo sapiens); conditions: Placenta; Microsomes; 0.2 uM
Description: Compound was tested for percent inhibitory activity against Estrone sulfatase 1 (E1-STS) at 0.2 uM in placental microsomes

[11] = molecular target: T1, Steryl-sulfatase (Homo sapiens); conditions: Placenta; Microsomes; 1.0 uM
Description: Compound was tested for percent inhibitory activity against Estrone sulfatase 1 (E1-STS) at 1.0 uM in placental microsomes

[12] = molecular target: T2, Steryl-sulfatase (Rattus norvegicus) (UniProt P15589); assay: In vivo inhibition of rat liver Estrone sulfatase 1 (E1-STS) by oral or subcutaneous dose; Almost complete inhibition; type: organism-based
T2 sequence (whole entry): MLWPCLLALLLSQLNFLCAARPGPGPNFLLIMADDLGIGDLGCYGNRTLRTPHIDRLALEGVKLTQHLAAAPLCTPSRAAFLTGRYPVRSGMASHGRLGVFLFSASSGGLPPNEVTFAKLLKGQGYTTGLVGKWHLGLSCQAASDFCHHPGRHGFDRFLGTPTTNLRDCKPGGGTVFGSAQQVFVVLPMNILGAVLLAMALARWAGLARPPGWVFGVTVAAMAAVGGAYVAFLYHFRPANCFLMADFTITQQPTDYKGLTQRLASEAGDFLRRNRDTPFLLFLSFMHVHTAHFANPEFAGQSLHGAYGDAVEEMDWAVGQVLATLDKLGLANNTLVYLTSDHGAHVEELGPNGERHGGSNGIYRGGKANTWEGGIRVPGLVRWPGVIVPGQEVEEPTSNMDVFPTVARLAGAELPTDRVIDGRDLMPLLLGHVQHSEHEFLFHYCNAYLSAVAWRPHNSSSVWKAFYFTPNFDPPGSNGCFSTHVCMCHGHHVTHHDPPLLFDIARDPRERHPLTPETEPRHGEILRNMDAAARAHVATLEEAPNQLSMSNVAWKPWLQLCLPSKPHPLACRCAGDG

SMILES: CN(C)S(=O)(=O)Oc1ccc2c(c1)CCC1[C@@H]2CC[C@]2(C)C(=O)CC[C@@H]12 (single isomer, unassigned)
inhibition [5]: 50%

SMILES: C[C@]12CC[C@@H]3c4ccc(OS(=O)(=O)N(Cc5ccccc5)Cc5ccccc5)cc4CCC3[C@@H]1CCC2=O (single isomer, unassigned)
inhibition [6]: 43% | inhibition [7]: 75% | inhibition [8]: 63%

SMILES: C[C@]12CC[C@@H]3c4ccc(OS(=O)(=O)N5CCCCC5)cc4CCC3[C@@H]1CCC2=O (single isomer, unassigned)
inhibition [6]: 13% | inhibition [7]: 20% | inhibition [8]: 17%

SMILES: C[C@]12CC[C@@H]3c4ccc(OS(N)(=O)=O)cc4CCC3[C@@H]1CCC2=O (single isomer, unassigned)
inhibition [9]: 50% | inhibition [10]: 82% | inhibition [11]: 95% | inhibition [12]: Active

Results, then the molecule that gave them:

inhibition [1]: 63% | inhibition [2]: 30% | inhibition [3]: > 99% | inhibition [4]: 92%
SMILES: CC(=O)NS(=O)(=O)Oc1ccc2c(c1)CCC1[C@@H]2CC[C@]2(C)C(=O)CC[C@@H]12 (single isomer, unassigned)

inhibition [5]: 80%
SMILES: CNS(=O)(=O)Oc1ccc2c(c1)CCC1[C@@H]2CC[C@]2(C)C(=O)CC[C@@H]12 (single isomer, unassigned)
